Earlier results in patent publication US20160000088A1, “PROCESS FOR PRODUCING SILVER-ION ANTIBACTERIAL LIQUID, SILVER-ION ANTIBACTERIAL LIQUID PRODUCED BY SAID PROCESS, AND SILVER-ION-CONTAINING PRODUCT CONTAINING SAID ANTIBACTERIAL LIQUID” (TAIKI CORP., LTD., priority 2013, published 2016).

System: Staphylococcus aureus
Settings: silver ion concentration of 10 ppb; nutrient broth added (NB culture)

Substance: silver ions
- decrease of bacterial count: ≥ 2 logs
